Here are results for twelve compounds from ChEMBL document CHEMBL5465560, “Selectivity Literature for EUbOPEN Chemogenomic Library” (2024).

For test [1], the target named is Mitogen-activated protein kinase kinase kinase 10 (Homo sapiens) (UniProt Q02779). The test can be described thus: Selectivity interaction (LanthaScreen Eu Kinase Binding Assay) EUB0001632a MAP3K10. The following applies: at 10 µM. Background: Time-resolved FRET reads energy transfer from a long-lived donor to a nearby acceptor.
Test [2] addresses T1, Phosphatidylinositol 5-phosphate 4-kinase type-2 gamma (Homo sapiens) (UniProt Q8TBX8).
T1 sequence (whole entry): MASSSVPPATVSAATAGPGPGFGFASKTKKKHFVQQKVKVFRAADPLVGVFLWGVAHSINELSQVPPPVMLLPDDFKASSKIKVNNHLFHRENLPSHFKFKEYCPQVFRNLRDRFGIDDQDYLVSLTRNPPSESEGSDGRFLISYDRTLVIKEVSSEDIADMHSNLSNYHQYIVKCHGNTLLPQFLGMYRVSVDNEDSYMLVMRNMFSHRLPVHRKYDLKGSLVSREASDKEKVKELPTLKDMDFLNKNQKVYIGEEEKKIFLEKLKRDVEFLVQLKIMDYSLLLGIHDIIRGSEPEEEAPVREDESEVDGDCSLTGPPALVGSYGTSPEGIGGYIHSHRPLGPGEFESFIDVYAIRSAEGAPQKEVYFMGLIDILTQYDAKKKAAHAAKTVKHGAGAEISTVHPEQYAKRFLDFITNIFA
The test can be described thus: Selectivity interaction (Kinase panel (KiNativ target engagement assay in Jurkat cells)) EUB0001635a PIP4K2C. The following applies: Selectivity number of off-targets 0.0, Selectivity number of targets 233.0, Source Knowledge https://www.sciencedirect.com/science/article/pii/S2451945619300674?via%3Dihub, at 1 µM. The format is cell-based.

Test [3] deals with Phosphatidylinositol 4-phosphate 5-kinase type-1 gamma (Homo sapiens) (UniProt O60331). The test can be described thus: Selectivity interaction (KinomeScan (DiscoverX)) EUB0000607a PIP5K1C. The following applies: at 10 µM.
Phosphatidylinositol 4-phosphate 5-kinase type-1 gamma (Homo sapiens), sequence (O60331 whole entry): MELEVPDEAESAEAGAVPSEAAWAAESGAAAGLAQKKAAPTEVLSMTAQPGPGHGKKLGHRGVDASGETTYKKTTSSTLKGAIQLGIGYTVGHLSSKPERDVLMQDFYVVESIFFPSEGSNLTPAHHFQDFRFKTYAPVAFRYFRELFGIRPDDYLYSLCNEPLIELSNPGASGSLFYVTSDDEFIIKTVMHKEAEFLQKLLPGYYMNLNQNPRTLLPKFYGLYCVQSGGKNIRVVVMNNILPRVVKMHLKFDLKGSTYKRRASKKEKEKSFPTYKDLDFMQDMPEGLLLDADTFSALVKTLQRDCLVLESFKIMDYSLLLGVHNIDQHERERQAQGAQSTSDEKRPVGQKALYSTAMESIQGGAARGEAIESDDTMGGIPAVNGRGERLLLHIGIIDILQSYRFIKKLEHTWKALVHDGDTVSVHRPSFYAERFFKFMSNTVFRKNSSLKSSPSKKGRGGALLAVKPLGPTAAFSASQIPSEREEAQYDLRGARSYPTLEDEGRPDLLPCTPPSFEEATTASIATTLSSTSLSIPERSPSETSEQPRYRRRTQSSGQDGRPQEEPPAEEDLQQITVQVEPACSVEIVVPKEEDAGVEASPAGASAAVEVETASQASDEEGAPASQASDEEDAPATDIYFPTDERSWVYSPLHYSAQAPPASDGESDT
Test [4] addresses Tyrosine-protein kinase Fer (Homo sapiens) (UniProt P16591). The settings on record: at 10 µM.
Test [5] concerns the target Serine/threonine-protein kinase WNK3 (Homo sapiens) (UniProt Q9BYP7). The test can be described thus: Selectivity interaction (KinomeScan (DiscoverX)) EUB0000229b WNK3. The settings on record: at 10 µM.
Test [6] concerns the target Dual specificity tyrosine-phosphorylation-regulated kinase 1A (Homo sapiens, UniProt Q13627). Kind of test: Selectivity interaction (KinomeScan (DiscoverX)) EUB0000655a DYRK1A. The following applies: at 10 µM.
The target in test [7] is Cyclin-dependent kinase 17 (Homo sapiens) (UniProt Q00537). The test can be described thus: Selectivity interaction (ActivX KiNativ screen (ex vivo kinase selectivity in human PBMCs)) EUB0001619a CDK17. The following applies: PBMC, at 1 µM. The format is cell-based.
Cyclin-dependent kinase 17 (Homo sapiens), sequence (Q00537 whole entry, looked up): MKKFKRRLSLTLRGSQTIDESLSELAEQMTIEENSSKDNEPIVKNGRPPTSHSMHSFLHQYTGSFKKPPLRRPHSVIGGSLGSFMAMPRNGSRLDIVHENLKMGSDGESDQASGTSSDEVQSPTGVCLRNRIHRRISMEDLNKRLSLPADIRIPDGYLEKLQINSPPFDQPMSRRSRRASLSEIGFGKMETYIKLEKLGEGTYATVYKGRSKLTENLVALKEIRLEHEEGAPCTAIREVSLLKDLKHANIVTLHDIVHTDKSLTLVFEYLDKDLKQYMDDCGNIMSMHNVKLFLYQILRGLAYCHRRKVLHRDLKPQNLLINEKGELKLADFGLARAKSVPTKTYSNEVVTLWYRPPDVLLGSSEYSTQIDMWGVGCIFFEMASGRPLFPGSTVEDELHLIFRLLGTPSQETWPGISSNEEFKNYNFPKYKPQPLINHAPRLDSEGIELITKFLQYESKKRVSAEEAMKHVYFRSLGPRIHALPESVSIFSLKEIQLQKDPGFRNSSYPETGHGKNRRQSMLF
Test [8] has as its target Tyrosine-protein kinase BTK (Homo sapiens, UniProt Q06187). Kind of test: Selectivity interaction (Kinase screening (Nanosyn)) EUB0000604a BTK.
In test [9] the target is Tyrosine-protein kinase Fgr (Homo sapiens) (UniProt P09769). The settings on record: at 10 µM.
The target of test [10] is Tyrosine-protein kinase Fes/Fps (Homo sapiens) (UniProt P07332). The test can be described thus: Selectivity interaction (ProQinase) EUB0000171b FES.
Tyrosine-protein kinase Fes/Fps (Homo sapiens), sequence (P07332 whole entry): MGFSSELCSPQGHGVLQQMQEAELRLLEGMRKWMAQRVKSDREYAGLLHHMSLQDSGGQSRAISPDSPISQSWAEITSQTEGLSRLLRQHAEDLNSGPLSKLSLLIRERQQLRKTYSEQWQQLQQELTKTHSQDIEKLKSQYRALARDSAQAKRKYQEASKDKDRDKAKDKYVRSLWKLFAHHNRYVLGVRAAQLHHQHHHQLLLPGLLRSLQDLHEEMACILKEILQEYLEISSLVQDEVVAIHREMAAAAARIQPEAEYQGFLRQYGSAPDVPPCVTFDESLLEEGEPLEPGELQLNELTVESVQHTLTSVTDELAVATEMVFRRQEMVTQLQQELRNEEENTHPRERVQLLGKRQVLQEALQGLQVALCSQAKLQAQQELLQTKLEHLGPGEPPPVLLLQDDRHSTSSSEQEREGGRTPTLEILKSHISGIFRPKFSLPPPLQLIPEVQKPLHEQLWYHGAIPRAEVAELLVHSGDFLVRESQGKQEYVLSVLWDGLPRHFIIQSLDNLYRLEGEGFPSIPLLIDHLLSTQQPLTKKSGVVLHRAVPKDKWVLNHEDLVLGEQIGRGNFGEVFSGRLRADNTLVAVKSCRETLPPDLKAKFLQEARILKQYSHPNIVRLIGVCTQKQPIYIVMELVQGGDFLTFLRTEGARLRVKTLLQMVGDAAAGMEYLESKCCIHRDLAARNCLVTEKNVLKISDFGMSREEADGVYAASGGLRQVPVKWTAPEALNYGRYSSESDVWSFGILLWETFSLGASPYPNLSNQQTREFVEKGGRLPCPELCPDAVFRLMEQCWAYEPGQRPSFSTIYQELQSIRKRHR
The target of test [11] is N6-adenosine-methyltransferase catalytic subunit (Homo sapiens) (UniProt Q86U44). Kind of test: Selectivity interaction (Transferase panel (protein, RNA, and DNA methyltransferases. and EP300 (acetyltransferase))) EUB0000270b METTL3.
N6-adenosine-methyltransferase catalytic subunit (Homo sapiens), sequence (Q86U44 whole entry): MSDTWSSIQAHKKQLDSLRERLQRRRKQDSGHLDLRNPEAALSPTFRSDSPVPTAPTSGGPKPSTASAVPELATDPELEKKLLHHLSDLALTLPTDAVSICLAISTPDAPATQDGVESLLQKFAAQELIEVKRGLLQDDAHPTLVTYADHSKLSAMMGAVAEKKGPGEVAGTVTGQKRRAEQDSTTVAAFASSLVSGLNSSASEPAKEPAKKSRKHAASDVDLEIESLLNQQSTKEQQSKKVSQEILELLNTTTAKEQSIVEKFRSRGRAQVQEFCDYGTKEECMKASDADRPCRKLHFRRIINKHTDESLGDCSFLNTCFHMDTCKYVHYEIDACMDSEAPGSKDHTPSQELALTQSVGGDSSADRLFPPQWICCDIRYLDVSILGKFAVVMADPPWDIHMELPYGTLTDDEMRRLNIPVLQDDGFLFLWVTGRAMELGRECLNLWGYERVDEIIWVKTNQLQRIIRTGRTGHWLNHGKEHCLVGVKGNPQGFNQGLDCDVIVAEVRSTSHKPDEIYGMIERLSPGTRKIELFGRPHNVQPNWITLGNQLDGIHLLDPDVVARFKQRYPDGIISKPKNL
The target in test [12] is T2, Mitogen-activated protein kinase kinase kinase 6 (Homo sapiens) (UniProt O95382).
T2 sequence (whole entry): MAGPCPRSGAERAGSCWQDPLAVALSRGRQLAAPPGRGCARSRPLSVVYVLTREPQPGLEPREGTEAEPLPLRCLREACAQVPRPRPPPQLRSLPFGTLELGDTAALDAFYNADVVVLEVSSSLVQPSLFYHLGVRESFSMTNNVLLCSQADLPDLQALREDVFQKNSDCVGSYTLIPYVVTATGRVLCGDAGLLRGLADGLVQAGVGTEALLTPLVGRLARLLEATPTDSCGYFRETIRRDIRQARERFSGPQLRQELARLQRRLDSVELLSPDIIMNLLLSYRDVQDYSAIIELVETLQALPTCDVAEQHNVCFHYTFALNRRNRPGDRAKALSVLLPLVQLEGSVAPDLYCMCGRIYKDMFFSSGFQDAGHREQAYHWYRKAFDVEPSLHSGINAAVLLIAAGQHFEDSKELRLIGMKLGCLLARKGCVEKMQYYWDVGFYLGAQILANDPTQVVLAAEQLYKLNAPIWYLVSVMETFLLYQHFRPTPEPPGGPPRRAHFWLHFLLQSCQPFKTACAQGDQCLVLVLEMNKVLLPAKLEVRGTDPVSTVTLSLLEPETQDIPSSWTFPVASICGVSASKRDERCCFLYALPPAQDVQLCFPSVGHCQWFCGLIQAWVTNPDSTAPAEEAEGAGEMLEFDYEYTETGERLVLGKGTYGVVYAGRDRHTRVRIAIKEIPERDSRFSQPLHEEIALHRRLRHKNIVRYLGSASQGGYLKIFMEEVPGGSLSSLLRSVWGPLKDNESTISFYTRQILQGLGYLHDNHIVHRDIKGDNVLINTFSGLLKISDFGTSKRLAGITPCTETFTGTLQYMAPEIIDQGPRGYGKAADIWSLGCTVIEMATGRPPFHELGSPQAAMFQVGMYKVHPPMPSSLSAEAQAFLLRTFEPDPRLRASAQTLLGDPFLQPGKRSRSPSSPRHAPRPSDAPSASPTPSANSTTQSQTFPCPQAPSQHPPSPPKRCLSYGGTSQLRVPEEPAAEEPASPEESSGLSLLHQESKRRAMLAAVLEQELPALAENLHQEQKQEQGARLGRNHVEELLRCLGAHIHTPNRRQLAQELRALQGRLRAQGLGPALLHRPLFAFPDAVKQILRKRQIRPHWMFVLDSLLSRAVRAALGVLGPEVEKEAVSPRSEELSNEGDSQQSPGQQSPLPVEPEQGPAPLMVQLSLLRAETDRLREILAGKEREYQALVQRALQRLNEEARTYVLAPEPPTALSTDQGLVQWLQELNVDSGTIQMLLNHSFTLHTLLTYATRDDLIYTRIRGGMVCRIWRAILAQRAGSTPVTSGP
Kind of test: Selectivity interaction (KinomeScan (DiscoverX)) EUB0000092b MAP3K6. The following applies: at 10 µM.

SMILES strings stand for the structures. Bounds are passed on as bounds.

Serine/threonine-protein kinase WNK3 (Homo sapiens), sequence (Q9BYP7 whole entry): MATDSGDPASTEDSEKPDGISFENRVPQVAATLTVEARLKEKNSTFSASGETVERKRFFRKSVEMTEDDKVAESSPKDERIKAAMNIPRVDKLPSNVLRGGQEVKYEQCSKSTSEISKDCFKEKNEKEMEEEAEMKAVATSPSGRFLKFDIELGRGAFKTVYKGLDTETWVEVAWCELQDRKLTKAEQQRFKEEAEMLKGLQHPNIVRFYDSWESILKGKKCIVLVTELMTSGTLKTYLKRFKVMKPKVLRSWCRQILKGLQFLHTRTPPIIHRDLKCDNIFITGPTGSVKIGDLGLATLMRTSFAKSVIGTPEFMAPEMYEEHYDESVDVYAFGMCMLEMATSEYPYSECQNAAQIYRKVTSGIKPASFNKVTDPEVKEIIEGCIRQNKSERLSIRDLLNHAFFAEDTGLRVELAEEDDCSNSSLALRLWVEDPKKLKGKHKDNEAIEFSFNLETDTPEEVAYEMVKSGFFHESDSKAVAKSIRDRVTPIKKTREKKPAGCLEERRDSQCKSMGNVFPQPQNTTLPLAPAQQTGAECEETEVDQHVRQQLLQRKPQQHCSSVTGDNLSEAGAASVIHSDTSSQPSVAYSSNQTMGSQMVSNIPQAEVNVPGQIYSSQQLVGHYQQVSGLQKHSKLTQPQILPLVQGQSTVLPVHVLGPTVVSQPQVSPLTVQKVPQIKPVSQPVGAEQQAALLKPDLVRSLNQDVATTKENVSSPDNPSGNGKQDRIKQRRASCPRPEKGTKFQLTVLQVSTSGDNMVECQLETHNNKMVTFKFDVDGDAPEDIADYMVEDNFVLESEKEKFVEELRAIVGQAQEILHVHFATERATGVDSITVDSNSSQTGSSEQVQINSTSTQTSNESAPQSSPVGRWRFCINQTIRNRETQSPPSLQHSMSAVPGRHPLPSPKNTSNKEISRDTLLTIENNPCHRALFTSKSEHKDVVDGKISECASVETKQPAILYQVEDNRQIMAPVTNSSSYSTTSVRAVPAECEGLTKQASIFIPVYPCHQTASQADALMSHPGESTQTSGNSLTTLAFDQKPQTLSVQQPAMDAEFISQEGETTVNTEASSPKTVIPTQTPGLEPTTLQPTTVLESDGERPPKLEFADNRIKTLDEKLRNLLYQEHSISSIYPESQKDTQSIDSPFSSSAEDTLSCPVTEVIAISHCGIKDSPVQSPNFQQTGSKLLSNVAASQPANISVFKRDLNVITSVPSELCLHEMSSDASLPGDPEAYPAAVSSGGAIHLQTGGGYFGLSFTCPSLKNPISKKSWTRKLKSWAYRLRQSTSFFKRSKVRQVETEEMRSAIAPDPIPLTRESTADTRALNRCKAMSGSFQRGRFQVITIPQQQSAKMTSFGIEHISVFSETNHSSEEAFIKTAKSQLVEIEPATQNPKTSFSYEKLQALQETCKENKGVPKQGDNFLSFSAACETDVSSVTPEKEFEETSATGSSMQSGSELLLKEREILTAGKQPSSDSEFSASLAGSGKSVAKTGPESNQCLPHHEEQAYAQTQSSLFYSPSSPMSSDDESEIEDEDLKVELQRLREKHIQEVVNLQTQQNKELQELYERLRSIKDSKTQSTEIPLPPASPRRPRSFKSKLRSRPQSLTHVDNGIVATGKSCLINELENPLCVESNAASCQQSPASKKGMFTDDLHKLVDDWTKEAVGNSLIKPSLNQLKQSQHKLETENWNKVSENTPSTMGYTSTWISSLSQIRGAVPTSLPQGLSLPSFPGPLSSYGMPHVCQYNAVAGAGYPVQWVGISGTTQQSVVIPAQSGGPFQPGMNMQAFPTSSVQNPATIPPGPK
Tyrosine-protein kinase BTK, sequence (Q06187 whole entry): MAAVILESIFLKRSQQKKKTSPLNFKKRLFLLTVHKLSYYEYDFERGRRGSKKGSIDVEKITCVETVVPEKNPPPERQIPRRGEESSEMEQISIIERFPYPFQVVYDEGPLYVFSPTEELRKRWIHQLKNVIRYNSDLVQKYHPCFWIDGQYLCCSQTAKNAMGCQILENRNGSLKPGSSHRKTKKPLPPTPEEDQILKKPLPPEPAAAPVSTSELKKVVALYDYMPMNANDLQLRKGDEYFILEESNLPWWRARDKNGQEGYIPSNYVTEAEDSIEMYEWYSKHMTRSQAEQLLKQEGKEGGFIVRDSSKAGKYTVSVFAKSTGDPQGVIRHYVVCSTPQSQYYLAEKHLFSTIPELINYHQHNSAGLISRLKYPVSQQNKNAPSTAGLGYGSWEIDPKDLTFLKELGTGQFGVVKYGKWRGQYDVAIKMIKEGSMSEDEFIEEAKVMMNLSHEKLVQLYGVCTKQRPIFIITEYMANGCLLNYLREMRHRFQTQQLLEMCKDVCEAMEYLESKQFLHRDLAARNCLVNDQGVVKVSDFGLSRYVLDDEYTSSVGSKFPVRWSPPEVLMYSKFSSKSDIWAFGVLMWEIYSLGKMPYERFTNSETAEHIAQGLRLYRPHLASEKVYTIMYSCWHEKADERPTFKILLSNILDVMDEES

Take `Cn1cc(-n2cnc3c(NCc4nc5cc(Cl)c(Cl)cc5[nH]4)nc(N4CCOCC4)nc32)cn1`: the % of inhibition in test [1] was -1.64%.
As to `C=CC(=O)Nc1ccc(C(=O)Nc2[nH]nc3c2CN(C(=O)N[C@H](CN(C)C)c2ccccc2)C3(C)C)cc1`, the % of engagement in test [2] is -2.5%.
`CNC(=O)Nc1ccc(-c2nc(N3CC4CCC(C3)O4)c3cnn(C4CCC5(CC4)OCCO5)c3n2)cc1` yielded a % of control in test [3] of 100%.
Compound `Cc1cc([C@@H](C)Nc2ccccc2C(=O)O)c2nc(N3CCOCC3)cc(=O)n2c1` [AZD-6482] came in with a % of control in [4] of 100%.
In the case of `COc1cc(N(C)c2ccnc3ccc(C(F)(F)F)cc23)cc(OC)c1OC`, the % binding in test [5] came out at 80%.
Compound `CN(C)CCOc1ccc(-c2nc(-c3ccncc3)c(-c3ccc4c(c3)CC/C4=N\O)[nH]2)cc1` gave a % of control in test [6] of 94%.
On to `N#Cc1cccc(-c2c[nH]c3ncnc(N4CCOCC4)c23)c1`, for which, in [7], the % of inhibition is 25%.
Consider `Cc1cnc(Nc2ccc(F)cc2Cl)nc1-c1c[nH]c(C(=O)N[C@H](CO)c2cccc(Cl)c2)c1`, for which the % of inhibition in test [8] was 5%.
Compound `CCN(CC)CCCCNc1ncc2cc(-c3cc(OC)cc(OC)c3)c(NC(=O)NC(C)(C)C)nc2n1` showed a % of control in test [9] of 100%.
As to `C=CC(=O)Nc1cccc(C(=O)Nc2ccc(Nc3cc(-c4[nH]c(SC)nc4C)ccn3)cc2)c1`, the figures for the % of control in test [10] (at 1 µM) and in test [10] (at 5 µM) were 88% and 91%, respectively.
For the compound `Cc1cc(CN)cc(C)c1-c1ncn(C)c1-c1cncn1C`, the % activity in test [11] (at 1 µM) is more than 90%; in test [11] (at 10 µM), more than 80%.
The compound `CCC(=O)N1CCN(c2ccc(-n3c(=O)ccc4cnc5ccc(-c6cnc7ccccc7c6)cc5c43)cc2C(F)(F)F)CC1` had a % of control in test [12] of 100%.
